Test results from patent publication US5166163A, “3-(1H-indazol-3-yl)-4-pyridinamines” (Hoechst-Roussel Pharmaceuticals Incorporated, priority 1991, dated 1992).
Structures can show the parent of a compound that is named as a salt.

Key:
[1] = test system: phenyl-para-quinone writhing; test: phenyl-para-quinone writhing assay in mice (analgesia); format: in vivo; conditions: s.c.
Text: The compounds of the present invention are useful as analgesic agents. […] Exptl. Biol. Med., 95,729 (1957)].

[2] = test system: ear edema induced by topical application of TPA (phorbol 12-myristate acetate); test: TPA-Induced Ear Edema (TPAEE); format: in vivo, Female Swiss Webster mice; conditions: mice
Method: The purpose of this assay was to determine the ability of a topically-applied compound to prevent ear edema induced by topical application of TPA (phorbol 12-myristate acetate). Female Swiss Webster mice topically received TPA (10 μg/ear) on the right ear and vehicle on the left ear. The test compound (10 μg/ear) was applied to both ears. After five hours, the animals were sacrificed and an ear punch (4 mm) was taken from each ear. The difference in right and left ear punch weights for each animal was determined to assess activity. […] See Young, J. M. et al., J. Invest. Dermatol., 80 (1983), pp. 48-52.

CC(C)(C)C(=O)Nc1ccncc1C(=NN)c1ccccc1F [[4-(2,2-Dimethylpropionamido)-3-pyridinyl]-2-fluorophenylmethanonehydrazonemaleate]
% Inhibition of Writhing ([1]; 20 mg/kg of body wt.): 60%

CC(C)(C)C(=O)Nc1ccncc1-c1n[nH]c2ccccc12 [N-[3-(1H-Indazol-3-yl)-4-pyridinyl]-2,2-dimethylpropanamide]
TPAEE (difference in right and left ear punch weights) ([2]; 10 μg/ear, both ears, five hours, TPA 10 μg/ear on right ear): -31%

NN=C(c1cnccc1N)c1ccccc1F [(4-Amino-3-pyridinyl)-2-fluorophenylmethanone hydrazone dihydrochloride]
% Inhibition of Writhing ([1]; 20 mg/kg of body wt.): 74%

C[C@]12CCC(=O)C=C1CC[C@@H]1[C@@H]2[C@@H](O)C[C@@]2(C)[C@H]1CC[C@]2(O)C(=O)CO [hydrocortisone, reference compound]
ED50 ([2]; standard, TPA-induced ear edema): 47 μg/ear

CCC(=O)O[C@](Cc1ccccc1)(c1ccccc1)[C@H](C)CN(C)C [Propoxyphene, reference compound]
% Inhibition of Writhing ([1]; 3.9 mg/kg of body wt., standard): 50%
